Laboratory results taken from patent US20110166121A1 (LG LIFE SCIENCES LTD., priority 2008, published 2011).
pKi: −log10 of the molar value.

Tested on: Human platelet aggregation caused by ADP
Assay: Inhibition of ADP-induced platelet aggregation (Mimic-human PRP)
Type: cell-based
Details: 20 μM ADP, human platelet concentrate diluted with PPP, absorption at 595 nm
Outline: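 Ki came from non-linear sigmoidal fits of inhibition, measured as the 3-min rise in absorbance at 595 nm after 20 μM ADP, relative to 0/20 μM ADP controls. Platelets (3–4×10^8/mL in PPP-diluted human PRP) were exposed to 0.01–30 μM compound for 20 min at room temperature beforehand.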

Compared with `CCCc1cc2c(N3CCn4c(nnc4C(F)(F)F)C3)nc(N3CC[C@H](NC(=O)NC4CCCC4)C3)nc2s1` [Example 9-15, 1-Cyclopentyl-3-{(S)-1-[6-propyl-4-(3-trifluoromethyl-5,6-dihydro-8H-[1,2,4]triazolo[4,3-a]pyrazin-7-yl)-thieno[2,3-d]pyrimidin-2-yl]-pyrrolidin-3-yl}-urea], `CCCc1cc2c(N3CCn4c(nnc4C(F)(F)F)C3)nc(N3CC[C@H](C(=O)N(C)C4CCCCC4)C3)nc2s1` [Example 9-65] is 2.35 log units lower in pKi: 7.38 for the first, 5.03 for the second. The first binds more tightly here.

First: CCCc1cc2c(N3CCn4c(nnc4C(F)(F)F)C3)nc(N[C@@H]3CCN(C(C)=O)C3)nc2s1 [Example 8-16, 1-{(R)-3-[6-Propyl-4-(3-trifluoromethyl-5,6-dihydro-8H-[1,2,4]triazolo[4,3-a]pyrazin-7-yl)-thieno[2,3-d]pyrimidin-2-ylamino]-pyrrolidin-1-yl}-ethanone]
Second: CCCC(=O)N1CC[C@H](CNc2nc(N3CCn4c(nnc4C(F)(F)F)C3)c3cc(CCC)sc3n2)C1 [Example 8-23, 1-((R)-3-{[6-Propyl-4-(3-trifluoromethyl-5,6-dihydro-8H-[1,2,4]triazolo[4,3-a]pyrazin-7-yl)-thieno[2,3-d]pyrimidin-2-ylamino]-methyl}-pyrrolidin-1-yl)-butan-1-one]
The pKi of the first is 1.22 log units higher: 7.46 for the first, 6.24 for the second.

`CCCc1cc2c(N3CCn4c(nnc4C(F)(F)F)C3)nc(N3CC[C@H](NC(=O)c4cc(F)c(F)c(F)c4)C3)nc2s1` [Example 9-13, 3,4,5-Trifluoro-N-{(S)-1-[6-propyl-4-(3-trifluoromethyl-5,6-dihydro-8H-[1,2,4]triazolo[4,3-a]pyrazin-7-yl)-thieno[2,3-d]pyrimidin-2-yl]-pyrrolidin-3-yl}-benzamide] and `CCCc1cc2c(N3CCn4c(nnc4C(F)(F)F)C3)nc(N3CC[C@H](NC(=O)Oc4ccc(F)cc4)C3)nc2s1` [Example 9-4, {(S)-1-[6-Propyl-4-(3-trifluoromethyl-5,6-dihydro-8H-[1,2,4]triazolo[4,3-a]pyrazin-7-yl)-thieno[2,3-d]pyrimidin-2-yl]-pyrrolidin-3-yl}-carbamic acid 4-fluoro-phenyl ester] are within 0.2 log units of each other in pKi: 6.52 for the first, 6.55 for the second.

First: CCCc1cc2c(N3CCn4c(nnc4C(F)(F)F)C3)nc(N3CC[C@H](CNC(=O)C(C)C)C3)nc2s1 [Example 8-6, N-{(R)-1-[6-Propyl-4-(3-trifluoromethyl-5,6-dihydro-8H-[1,2,4]triazolo[4,3-a]pyrazin-7-yl)-thieno[2,3-d]pyrimidin-2-yl]-pyrrolidin-3-ylmethyl}-isobutyramide]
Second: CCCc1cc2c(N3CCn4c(nnc4C(F)(F)F)C3)nc(N3CC[C@@H](CNC(C)=O)C3)nc2s1 [Example 8-1, N-{(S)-1-[6-Propyl-4-(3-trifluoromethyl-5,6-dihydro-8H-[1,2,4]triazolo[4,3-a]pyrazin-7-yl)-thieno[2,3-d]pyrimidin-2-yl]-pyrrolidin-3-ylmethyl}-acetamide]
The pKi of the first is 0.54 log units lower: 6.92 for the first, 7.46 for the second.

Going from `CCCc1cc2c(N3CCn4c(nnc4C(F)(F)F)C3)nc(N3CC(=O)N(CCO)C3=O)nc2s1` [Example 9-51, 3-(2-Hydroxy-ethyl)-1-[6-propyl-4-(3-trifluoromethyl-5,6-dihydro-8H-[1,2,4]triazolo[4,3-a]pyrazin-7-yl)-thieno[2,3-d]pyrimidin-2-yl]-imidazolidine-2,4-dione] to `CCCc1cc2c(N3CCn4c(nnc4C(F)(F)F)C3)nc(-n3ccc(N)n3)nc2s1` [Example 9-52, 1-[6-Propyl-4-(3-trifluoromethyl-5,6-dihydro-8H-[1,2,4]triazolo[4,3-a]pyrazin-7-yl)-thieno[2,3-d]pyrimidin-2-yl]-1H-pyrazol-3-ylamine], the pKi rises from 6.72 to 7.80 (1.08 log units).

Going from `CCCc1cc2c(N3CCn4c(nnc4C(F)(F)F)C3)nc(OC3CN(C(=O)C(C)C)C3)nc2s1` [Example 8-27, 2-Methyl-1-{3-[6-propyl-4-(3-trifluoromethyl-5,6-dihydro-8H-[1,2,4]triazolo[4,3-a]pyrazin-7-yl)-thieno[2,3-d]pyrimidin-2-yloxy]-azetidin-1-yl}-propan-1-one] to `CCCc1cc2c(N3CCn4c(nnc4C(F)(F)F)C3)nc(OC[C@@H]3CCN(C(=O)C(C)C)C3)nc2s1` [Example 8-36, 2-Methyl-1-{(R)-3-[6-propyl-4-(3-trifluoromethyl-5,6-dihydro-8H-[1,2,4]triazolo[4,3-a]pyrazin-7-yl)-thieno[2,3-d]pyrimidin-2-yloxymethyl]-pyrrolidin-1-yl}-propan-1-one], the pKi rises from 6.59 to 7.35 (0.76 log units).

Going from `CCCc1cc2c(N3CCn4c(nnc4C(F)(F)F)C3)nc(OC)nc2s1` [Example 9-35, 7-(2-Methoxy-6-propyl-thieno[2,3-d]pyrimidin-4-yl)-3-trifluoromethyl-5,6,7,8-tetrahydro-[1,2,4]triazolo[4,3-a]pyrazine] to `CCCc1cc2c(N3CCn4c(nnc4C(F)(F)F)C3)nc(OCCN(C)C=O)nc2s1` [Example 9-93, N-Methyl-N-{2-[6-propyl-4-(3-trifluoromethyl-5,6-dihydro-8H-[1,2,4]triazolo[4,3-a]pyrazin-7-yl)-thieno[2,3-d]pyrimidin-2-yloxy]-ethyl}-formamide], the pKi rises from 6.66 to 7.28 (0.62 log units). The second binds more tightly here.

Going from `CCCc1cc2c(N3CCn4c(nnc4C(F)(F)F)C3)nc(N3CC(NC(C)=O)C(NC(C)=O)C3)nc2s1` (stereo not drawn) [Example 7-28, N-{4-Acetylamino-1-[6-propyl-4-(3-trifluoromethyl-5,6-dihydro-8H-[1,2,4]triazolo[4,3-a]pyrazin-7-yl)-thieno[2,3-d]pyrimidin-2-yl]-pyrrolidin-3-yl}-acetamide] to `CCCc1cc2c(N3CCn4c(nnc4C(F)(F)F)C3)nc(N3CC(Cl)C(NC(C)=O)C3)nc2s1` (stereo not drawn) [Example 9-29, N-{4-Chloro-1-[6-propyl-4-(3-trifluoromethyl-5,6-dihydro-8H-[1,2,4]triazolo[4,3-a]pyrazin-7-yl)-thieno[2,3-d]pyrimidin-2-yl]-pyrrolidin-3-yl}-acetamide], the pKi rises from 7.38 to 8.66 (1.28 log units).

First: CCCc1cc2c(N3CCn4c(nnc4C(F)(F)F)C3)nc(OCCN(CC(=O)OCC)C(=O)C3CC3)nc2s1 [Example 3-56, (Cyclopropanecarbonyl-{2-[6-propyl-4-(3-trifluoromethyl-5,6-dihydro-8H-[1,2,4]triazolo[4,3-a]pyrazin-7-yl)-thieno[2,3-c]pyrimidin-2-yloxy]-ethyl}-amino)-acetic acid ethyl ester]
Second: CCCc1cc2c(N3CCn4c(nnc4C(F)(F)F)C3)nc(OCCN(CC(=O)O)C(=O)C3CC3)nc2s1 [Example 3-57, (Cyclopropanecarbonyl-{2-[6-propyl-4-(3-trifluoromethyl-5,6-dihydro-8H-[1,2,4]triazolo[4,3-a]pyrazin-7-yl)-thieno[2,3-d]pyrimidin-2-yloxy]-ethyl}-amino)-acetic acid]
The pKi of the first is 0.52 log units lower: 7.12 for the first, 7.64 for the second. The second binds more tightly here.

`CCCc1cc2c(N3CCn4c(nnc4C(F)(F)F)C3)nc(OCCCCNC=O)nc2s1` [Example 9-91, N-{4-[6-Propyl-4-(3-trifluoromethyl-5,6-dihydro-8H-[1,2,4]triazolo[4,3-a]pyrazin-7-yl)-thieno[2,3-d]pyrimidin-2-yloxy]-butyl}-formamide] and `CCCc1cc2c(N3CCn4c(nnc4C(F)(F)F)C3)nc(N=[N+]=[N-])nc2s1` [Example 9-37, 7-(2-Azido-6-propyl-thieno[2,3-d]pyrimidin-4-yl)-3-trifluoromethyl-5,6,7,8-tetrahydro-[1,2,4]triazolo[4,3-a]pyrazine] are within 0.2 log units of each other in pKi: 6.72 for the first, 6.70 for the second.

Going from `CCCc1cc2c(N3CCn4c(nnc4C(F)(F)F)C3)nc(N(CCO)c3cnccn3)nc2s1` [Example 9-50, 2-{[6-Propyl-4-(3-trifluoromethyl-5,6-dihydro-8H-[1,2,4]triazolo[4,3-a]pyrazin-7-yl)-thieno[2,3-d]pyrimidin-2-yl]-pyrazin-2-yl-amino}-ethanol] to `CCCc1cc2c(N3CCn4c(nnc4C(F)(F)F)C3)nc(N3CC[C@H](NC=O)C3)nc2s1` [Example 9-21, N-{(S)-1-[6-Propyl-4-(3-trifluoromethyl-5,6-dihydro-8H-[1,2,4]triazolo[4,3-a]pyrazin-7-yl)-thieno[2,3-d]pyrimidin-2-yl]-pyrrolidin-3-yl}-formamide], the pKi rises from 6.64 to 8.22 (1.58 log units). The second binds more tightly here.

First: CCCc1cc2c(N3CCn4c(nnc4C(F)(F)F)C3)nc(N3CC(O)C(NC(=O)C(C)C)C3)nc2s1 (stereo not drawn) [Example 7-20, N-{4-Hydroxy-1-[6-propyl-4-(3-trifluoromethyl-5,6-dihydro-8H-[1,2,4]triazolo[4,3-a]pyrazin-7-yl)-thieno[2,3-d]pyrimidin-2-yl]-pyrrolidin-3-yl}-isobutyramide]
Second: CCCc1cc2c(N3CCn4c(nnc4C(F)(F)F)C3)nc(N3CC(O)C(NC(=O)OCC)C3)nc2s1 (stereo not drawn) [Example 9-1, {4-Hydroxy-1-[6-propyl-4-(3-trifluoromethyl-5,6-dihydro-8H-[1,2,4]triazolo[4,3-a]pyrazin-7-yl)-thieno[2,3-d]pyrimidin-2-yl]-pyrrolidin-3-yl}-carbamic acid ethyl ester]
The pKi of the first is 0.58 log units higher: 8.32 for the first, 7.74 for the second. The first binds more tightly here.

Going from `CCCc1cc2c(N3CCn4c(nnc4C(F)(F)F)C3)nc(N3CC[C@H](NC(=O)C(C)(C)O)C3)nc2s1` [Example 1-107, 2-Hydroxy-2-methyl-N-{(S)-1-[6-propyl-4-(3-trifluoromethyl-5,6-dihydro-8H-[1,2,4]triazolo[4,3-a]pyrazin-7-yl)-thieno[2,3-d]pyrimidin-2-yl]-pyrrolidin-3-yl}-propionamide] to `CCCc1cc2c(N3CCn4c(nnc4C(F)(F)F)C3)nc(N3CCCC(C(=O)NC)C3)nc2s1` (stereo not drawn) [Example 1-93, 1-[6-Propyl-4-(3-trifluoromethyl-5,6-dihydro-8H-[1,2,4]triazolo[4,3-a]pyrazin-7-yl)-thieno[2,3-d]pyrimidin-2-yl]-piperidine-3-carboxylic acid methylamide], the pKi falls from 7.72 to 6.69 (1.03 log units).

Compound `CCCc1cc2c(N3CCn4c(nnc4C(F)(F)F)C3)nc(N3CCCC(C(=O)NO)C3)nc2s1` (stereo not drawn) [Example 1-95, 1-[6-Propyl-4-(3-trifluoromethyl-5,6-dihydro-8H-[1,2,4]triazolo[4,3-a]pyrazin-7-yl)-thieno[2,3-d]pyrimidin-2-yl]-piperidine-3-carboxylic acid hydroxyamide] has a pKi of 7.96.
